Values joined by “and” are separate entries in the source; they are usually repeats but may differ in a detail not shown here. Equal values may be shown once.
Details: Fluid (supercritical or subcritical phases), Buoyancy - hydrostatic balance with magnetic suspension - two sinkers

CCC [propane]
Details	mass density
265 K, 2141.2 kPa	542.504 kg/m3
265 K, 2141.4 kPa	542.503 kg/m3
265 K, 2144 kPa	542.507 kg/m3 and 542.508 kg/m3
265 K, 2144.3 kPa	542.51 kg/m3
265 K, 2144.8 kPa	542.509 kg/m3
265 K, 2145 kPa	542.509 kg/m3
265 K, 3759.4 kPa	545.171 kg/m3
265 K, 3760 kPa	545.17 kg/m3
265 K, 3760.5 kPa	545.17 kg/m3
265 K, 3766.3 kPa	545.182 kg/m3
265 K, 3771.8 kPa	545.194 kg/m3
265 K, 4142.6 kPa	545.789 kg/m3
265 K, 4145 kPa	545.794 kg/m3
265 K, 4149.1 kPa	545.797 kg/m3
265 K, 4150.8 kPa	545.802 kg/m3
265 K, 8329.8 kPa	552.117 kg/m3
265 K, 8330.5 kPa	552.12 kg/m3
265 K, 8330.7 kPa	552.117 kg/m3
265 K, 8331.9 kPa	552.121 kg/m3
265 K, 8332.3 kPa	552.121 kg/m3
265 K, 12135 kPa	557.342 kg/m3
265 K, 12136 kPa	557.343 kg/m3
265 K, 12137 kPa	557.343 kg/m3
265 K, 16242 kPa	562.533 kg/m3
265 K, 16243 kPa	562.535 kg/m3
265 K, 16245 kPa	562.537 kg/m3
265 K, 16246 kPa	562.537 kg/m3
265 K, 20184 kPa	567.153 kg/m3 and 567.155 kg/m3
265 K, 20189 kPa	567.157 kg/m3
265 K, 20190 kPa	567.159 kg/m3
265 K, 20191 kPa	567.16 kg/m3
265 K, 24029 kPa	571.368 kg/m3
265 K, 24030 kPa	571.371 kg/m3
265 K, 24031 kPa	571.373 kg/m3 and 571.369 kg/m3
265 K, 30007 kPa	577.453 kg/m3 and 577.455 kg/m3 and 577.457 kg/m3
265 K, 30010 kPa	577.458 kg/m3 and 577.459 kg/m3
265 K, 34915 kPa	582.091 kg/m3
265 K, 34916 kPa	582.091 kg/m3 and 582.092 kg/m3 and 582.09 kg/m3
280 K, 2010.8 kPa	522.313 kg/m3
280 K, 2011 kPa	522.314 kg/m3
280 K, 2012.2 kPa	522.319 kg/m3
280 K, 2013 kPa	522.322 kg/m3
280 K, 2016.3 kPa	522.324 kg/m3
280 K, 2020 kPa	522.336 kg/m3
280 K, 2020.8 kPa	522.337 kg/m3
280 K, 2021.2 kPa	522.338 kg/m3
280 K, 2021.3 kPa	522.335 kg/m3
280 K, 2021.4 kPa	522.337 kg/m3
280 K, 4077.8 kPa	526.538 kg/m3
280 K, 4078.2 kPa	526.542 kg/m3
280 K, 4078.3 kPa	526.539 kg/m3
280 K, 4078.4 kPa	526.539 kg/m3
280 K, 8037.8 kPa	533.834 kg/m3
280 K, 8038.9 kPa	533.835 kg/m3
280 K, 8039.6 kPa	533.833 kg/m3
280 K, 8040 kPa	533.836 kg/m3
280 K, 8040.4 kPa	533.836 kg/m3
280 K, 12164 kPa	540.567 kg/m3
280 K, 12165 kPa	540.568 kg/m3
280 K, 12166 kPa	540.568 kg/m3
280 K, 12167 kPa	540.57 kg/m3
280 K, 16052 kPa	546.301 kg/m3 and 546.302 kg/m3
280 K, 16053 kPa	546.299 kg/m3 and 546.301 kg/m3
280 K, 16054 kPa	546.301 kg/m3
280 K, 20169 kPa	551.856 kg/m3
280 K, 20170 kPa	551.857 kg/m3
280 K, 20171 kPa	551.857 kg/m3
280 K, 20173 kPa	551.86 kg/m3
280 K, 24174 kPa	556.843 kg/m3
280 K, 24175 kPa	556.845 kg/m3
280 K, 24178 kPa	556.848 kg/m3
280 K, 29900 kPa	563.396 kg/m3 and 563.395 kg/m3
280 K, 29902 kPa	563.397 kg/m3 and 563.398 kg/m3
280 K, 35491 kPa	569.254 kg/m3
280 K, 35492 kPa	569.255 kg/m3
280 K, 35494 kPa	569.255 kg/m3
280 K, 35496 kPa	569.259 kg/m3
300 K, 2095.9 kPa	492.916 kg/m3
300 K, 2096.6 kPa	492.92 kg/m3
300 K, 2096.7 kPa	492.918 kg/m3
300 K, 2096.8 kPa	492.918 kg/m3
300 K, 2097 kPa	492.917 kg/m3
300 K, 4036.5 kPa	498.494 kg/m3
300 K, 4037.2 kPa	498.496 kg/m3
300 K, 4037.3 kPa	498.493 kg/m3
300 K, 4037.4 kPa	498.494 kg/m3
300 K, 8037.7 kPa	508.391 kg/m3
300 K, 8038 kPa	508.393 kg/m3
300 K, 8038.1 kPa	508.394 kg/m3
300 K, 8038.4 kPa	508.391 kg/m3
300 K, 8038.7 kPa	508.393 kg/m3
300 K, 12024 kPa	516.758 kg/m3
300 K, 12025 kPa	516.758 kg/m3 and 516.759 kg/m3
300 K, 16033 kPa	524.122 kg/m3 and 524.123 kg/m3
300 K, 16035 kPa	524.125 kg/m3
300 K, 16037 kPa	524.128 kg/m3
300 K, 20366 kPa	531.21 kg/m3
300 K, 20369 kPa	531.216 kg/m3
300 K, 20370 kPa	531.214 kg/m3
300 K, 23908 kPa	536.474 kg/m3 and 536.475 kg/m3
300 K, 23909 kPa	536.476 kg/m3
300 K, 23911 kPa	536.479 kg/m3
300 K, 29891 kPa	544.528 kg/m3
300 K, 29892 kPa	544.529 kg/m3 and 544.528 kg/m3
300 K, 35152 kPa	550.916 kg/m3
300 K, 35153 kPa	550.918 kg/m3 and 550.916 kg/m3
300 K, 35154 kPa	550.917 kg/m3
310 K, 261.67 kPa	4.6501 kg/m3
310 K, 261.68 kPa	4.6501 kg/m3 and 4.6502 kg/m3
310 K, 261.69 kPa	4.6502 kg/m3
310 K, 460.64 kPa	8.455 kg/m3 and 8.4548 kg/m3 and 8.4549 kg/m3
310 K, 760.19 kPa	14.7402 kg/m3
310 K, 760.2 kPa	14.7403 kg/m3
310 K, 760.25 kPa	14.7415 kg/m3
310 K, 760.28 kPa	14.7419 kg/m3 and 14.7421 kg/m3

Source: the NIST ThermoML archive (doi:10.1021/je900124n)
